This passage reports IC50 results from ChEMBL document CHEMBL4145610, “Total Syntheses of Lobaric Acid and Its Derivatives from the Antarctic Lichen Stereocaulon alpinum” (J Nat Prod, 2018).

Molecules are shown by their SMILES.

This test deals with T1, Tyrosine-protein phosphatase non-receptor type 1 (Homo sapiens, UniProt P18031).
T1 sequence (P18031 whole entry): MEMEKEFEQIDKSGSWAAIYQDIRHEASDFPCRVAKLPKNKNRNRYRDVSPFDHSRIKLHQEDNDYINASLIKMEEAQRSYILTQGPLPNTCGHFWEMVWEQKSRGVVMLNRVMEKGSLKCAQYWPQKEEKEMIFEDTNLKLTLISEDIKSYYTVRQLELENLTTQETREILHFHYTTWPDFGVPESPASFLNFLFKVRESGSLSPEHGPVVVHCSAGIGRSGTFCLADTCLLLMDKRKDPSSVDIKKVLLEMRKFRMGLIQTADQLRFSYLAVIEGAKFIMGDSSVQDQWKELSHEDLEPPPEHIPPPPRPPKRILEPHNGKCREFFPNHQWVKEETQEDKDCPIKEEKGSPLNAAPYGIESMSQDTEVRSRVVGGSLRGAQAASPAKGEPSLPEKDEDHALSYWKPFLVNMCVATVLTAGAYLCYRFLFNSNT
As to the kind of experiment: Inhibition of PTP1B (1 to 298 residues) (unknown origin) using p-nitrophenylphosphate as substrate after 30 mins.
Compound `CCCCCc1c2c(cc(O)c1C(=O)O)OC(=O)c1c(cc(OC)cc1C(=O)CCCC)O2` [LOBARIC ACID] gave an IC50 of 800 nM. For `CCCCCc1c(Oc2cc(OC)cc3c2C(=O)OC3(CCCC)OC)c(O)cc(O)c1C(=O)O` (stereo not given) the value was 1500 nM. For `CCCCCc1cc(O)cc(O)c1Oc1cc(OC)cc2c1C(=O)OC2(O)CCCC` (stereo not given) [SAKISACAULON A] the value was 1700 nM. For `CCCCCc1c(Oc2cc(OC)cc3c2C(=O)OC3(O)CCCC)c(O)cc(O)c1C(=O)O` (stereo not given) the value was 900 nM; for `CCC/C=C1\OC(=O)c2c(Oc3c(O)cc(O)c(C(=O)O)c3CCCCC)cc(OC)cc21`, 500 nM.

As usually defined, the IC50 is the concentration that inhibits the measured activity by half. Lower therefore signals greater potency.
